Assay results as given in patent US11339130B1 (Blade Therapeutics, Inc., priority 2016, dated 2022).
Where two headings read alike, the source gives them in different places.

Legend:
[1] = system: Calpain activity in SH-SY5Y cells (SBDP-150); assay: SH-SY5Y Spectrin western blot assay (SBDP-150 breakdown product, A23187-induced); format: cell-based; conditions: Homo sapiens, SH-SY5Y cells, read-out: SH-SY5Y Spectrin IC50
[2] = system: Bleomycin-induced pulmonary fibrosis; assay: Bleomycin-induced pulmonary fibrosis in mice (14 d); format: in vivo; design: concentration or dose not given beside the values
From the text: The method for inducing pulmonary fibrosis in mice is described in Current Protocols in Pharmacology: 5.46.1, entitled “Mouse Models of Bleomycin-induced Pulmonary Fibrosis”. In order to induce pulmonary fibrosis, 6-8 week old C57B1/6 mice or Wistar rats are instilled once oropharyngeally with ˜1.5 U/kg of bleomycin sulfate (Calbiochem, Billerica, Mass.). Briefly, for oropharyngeal administration of bleomycin, mice or rats are anesthetized with isofluorane and then suspended on its back at a˜60 degree angle on an inclined surface with a rubber band running under the upper incisors. The airway is opened while securing the tongue with one arm of padded forceps and bleomycin is administered into the back of the oral cavity with a syringe. The animal's tongue and mouth were held open until the liquid disappeared from the oral cavity. The animal was then returned to its cage and monitored until fully recovered from the anesthesia. The study is terminated on day 14-28 for oropharyngeally administered bleomycin in mice and rats. All animals are euthanized at the termination of the studies by cervical dislocation for gross necropsy, and blood collected by cardiac puncture. The lungs from each animal are dissected from the animal and weighed. The BAL cells and fluid are collected by lavaging the lung twice with 0.5 ml Hanks Balanced Salt Solution (HBSS; VWR, Radnor, Pa.). After collection of BAL cells and fluid, lungs are dissected and removed from each animal. Whole lungs are inflated with 10% NBF and then fixed in 10% NBF for histology. Severity of fibrosis in the lungs is evaluated using a modified Ashcroft score (Hubner, Biotechniques, 2008) and subjective fibrosis scores. Lung sections were graded by averaging 5 microscopic fields at 20× on an Ashcroft scale as follows: Grade 0=normal lung; Grade 1=minimally detectable thickening of alveolar walls; Grade 2=Mild thickening of alveolar walls. Grade 3=moderate contiguous thickening of walls with fibrous nodules; Grade 4=Thickened septae and confluent fibrotic masses that total less than 10% of microscopic field. Grade 5=increased fibrosis with definite damage to lung structure and formation of fibrous bands or small fibrous masses between 10 and 50% of microscopic field; Grade 6=Large contiguous fibrotic masses consolidating more than 50% of microscopic field. Grade 7=severe distortion of structure and large fibrous areas; Grade 8=total fibrous obliteration of lung within microscopic field. Each slide was examined at 20× magnification and the score for 5 separate representative fields was averaged for each animal. Subjective scores (H&E and Trichrome-stained slides) were evaluated at 2× magnification for an overall assessment of pathologic change. A score of 0=no detectible findings to 5=complete involvement of consolidation. Scores in each group were averaged and standard error was calculated using Excel 2010. Dense, organized inflammatory exudates were scored as fibrosis. Other tissues were evaluated microscopically and scored routinely.

human calpain 9 = target: T1, human calpain 9 (Homo sapiens, UniProt O14815); assay: Calpain binding: crystal structure interaction distances, human calpain 9
T1 construct: human calpain 9, residues 27-347, was over expressed in E. coli BL21 (DE3); hexa-histidine (N); made in house; host or cells: E. coli BL21 (DE3)
T1 sequence (O14815 27-347): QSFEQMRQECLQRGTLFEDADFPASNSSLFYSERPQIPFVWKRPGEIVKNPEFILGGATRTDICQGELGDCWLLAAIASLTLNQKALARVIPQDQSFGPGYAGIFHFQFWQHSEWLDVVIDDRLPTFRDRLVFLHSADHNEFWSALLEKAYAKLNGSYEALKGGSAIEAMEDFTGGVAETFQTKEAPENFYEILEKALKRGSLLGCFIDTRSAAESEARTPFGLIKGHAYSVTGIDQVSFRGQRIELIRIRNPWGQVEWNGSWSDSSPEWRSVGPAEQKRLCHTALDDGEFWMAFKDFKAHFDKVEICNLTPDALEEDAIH
Experimental: Calpain 9 Protein Preparation: N-terminally hexa-histidine-tagged human calpain 9, residues 27-347, was over expressed in E. coli BL21 (DE3) and purified via Ni-NTA and size-exclusion chromatography with yields >10 mg/liter of culture and >99% purity. The calpain 9 sequence is accession number 014815 at uniprot.org.
Calpain 9 Crystallization: A 10 mg/ml solution of rat calpain 1 or human calpain 9 (obtained as described above) was prepared in 50 mM tris (pH 8), 0.5 M NaCl, 1 mM EDTA, 1 mM CaCl2), and 1 mM beta-mercaptoethanol against MCSG1 screen condition C2 (Anatrace, Maumee, Ohio) containing 0.2 M LiSO4, 0.1 M bis-tris (pH 5.5), and 25% PEG 3350. The solution contained 2.5 mM of test compound supplemented with 20% ethylene glycol as a cryo-protectant. The bound protein was crystallized using vapor diffusion, sitting drop, at […]. The space group was P 41 21 2, with unit cell dimensions of 97.2 Å, 97.2 Å, 173.4 Å.
Calpain 9 Crystallography data collection and refinement: Data was collected at the APS synchrotron, beamline 21-ID-F at […]. Reflections were collect between 45.0-2.1 Å with completeness of 100%. Reflection data was analyzed using XDS and Xscale (Heidelberg, Germany). Structure was solved using molecular replacement and was refined with PHENIX (Berkeley, Calif.) to an R value of 0.168, Rfree=0.210.
Key interactions between test compound moieties (with reference to the variables of Formula II) and calpain 1 or calpain 9 residues were determined as set forth in Tables 4-7 below.

[3] = Column D, A23187-induced SBDP-150
[4] = non-polar interactions with human calpain 9
[5] = polar interactions with human calpain 9
[6] = A23187-induced SBDP-150, western blot

## NC(=O)C(=O)[C@H](Cc1ccccc1)NC(=O)c1cnoc1-c1ccccc1 [Compound 60, (S)—N-(4-amino-3,4-dioxo-1-phenylbutan-2-yl)-5-phenylisoxazole-4-carboxamide]
[1]; [3]
  IC50: < 10 µM
[2]
  % reduction compared to vehicle: −24%

## NC(=O)C(=O)[C@H](Cc1ccccc1)NC(=O)c1nsnc1-c1ccccc1 [Compound 72, (S)—N-(4-amino-3,4-dioxo-1-phenylbutan-2-yl)-4-phenyl-1,2,5-thiadiazole-3-carboxamide]
[1]; [3]
  IC50: < 10 µM
[2]
  % reduction compared to vehicle: −35%
Human calpain 9; [4]
  Interaction Distances P1-Gly95: 3.9 Å
  Interaction Distances P1-Gly189: 3.5 Å
  Interaction Distances P1-Lys188: 4.0 Å
  Interaction Distances P1-Ser242: 3.5 Å
  Interaction Distances P2-Ala255: 3.6 Å
  Interaction Distances P2-Gly190: 3.0 Å
  Interaction Distances P2-Gly253: 3.2 Å
  Interaction Distances P2-His254: 3.7 Å
  Interaction Distances P2-Phe233: 4.1 Å
  Interaction Distances P3-Gly189: 3.8 Å
  Interaction Distances P3-Gly190: 3.3 Å
  Interaction Distances P3-Ser191: 4.2 Å
Human calpain 9; [5]
  Interaction Distances R^10-Gly253: 3.2 Å
  Interaction Distances R^11-Gly190: 2.9 Å
  Interaction Distances R^12-His254: 2.6 Å
  Interaction Distances R^13-Cys97: 2.9 Å
  Interaction Distances R^13-Gln91: 2.8 Å

## Cc1nc(-c2ccccc2)c(C(=O)NC(Cc2ccccc2)C(=O)C(N)=O)o1 (stereo not drawn) [Compound 357, N-(4-amino-3,4-dioxo-1-phenylbutan-2-yl)-2-methyl-4-phenyloxazole-5-carboxamide]
[1]; [6]
  IC50: < 10 µM
[2]
  % reduction compared to vehicle: −13%

## NC(=O)C(=O)C(Cc1ccccc1)NC(=O)c1cn(C(F)F)nc1-c1ccccc1 (stereo not drawn) [Compound 403, N-(4-amino-3,4-dioxo-1-phenylbutan-2-yl)-1-(difluoromethyl)-3-phenyl-1H-pyrazole-4-carboxamide]
[1]; [6]
  IC50: < 10 µM
[2]
  % reduction compared to vehicle: −29%

## Cc1nc(-c2cccc(F)c2)c(C(=O)NC(Cc2ccccc2)C(=O)C(N)=O)o1 (stereo not drawn) [Compound 404, N-(4-amino-3,4-dioxo-1-phenylbutan-2-yl)-4-(3-fluorophenyl)-2-methyloxazole-5-carboxamide]
[1]; [6]
  IC50: < 10 µM
[2]
  % reduction compared to vehicle: −24%

## Cc1nc(-c2ccccc2F)c(C(=O)NC(Cc2ccccc2)C(=O)C(N)=O)o1 (stereo not drawn) [Compound 405, N-(4-amino-3,4-dioxo-1-phenylbutan-2-yl)-4-(2-fluorophenyl)-2-methyloxazole-5-carboxamide]
[2]
  % reduction compared to vehicle: −33%

## NC(=O)C(=O)C(Cc1ccccc1)NC(=O)c1cn(C2CC2)nc1-c1ccccc1 (stereo not drawn) [Compound 406, N-(4-amino-3,4-dioxo-1-phenylbutan-2-yl)-1-cyclopropyl-3-phenyl-1H-pyrazole-4-carboxamide]
[1]; [6]
  IC50: 10 to 25 µM
[2]
  % reduction compared to vehicle: −25%

## Cn1cc(C(=O)NC(Cc2ccccc2)C(=O)C(N)=O)c(-c2ccccc2F)n1 (stereo not drawn) [Compound 484, N-(4-amino-3,4-dioxo-1-phenylbutan-2-yl)-3-(2-fluorophenyl)-1-methyl-1H-pyrazole-4-carboxamide]
[1]; [6]
  IC50: 10 to 25 µM
[2]
  % reduction compared to vehicle: −35%

## Cl.Cn1cc(C(=O)NC(Cc2ccccc2)C(=O)C(N)=O)c(-c2cccc(F)c2)n1 (stereo not drawn) [Compound 485, N-(4-amino-3,4-dioxo-1-phenylbutan-2-yl)-3-(3-fluorophenyl)-1-methyl-1H-pyrazole-4-carboxamide hydrochloride]
[1]; [6]
  IC50: 10 to 25 µM
[2]
  % reduction compared to vehicle: −41%

## Cc1cc(C(=O)NC(Cc2ccccc2)C(=O)C(N)=O)n(-c2ccccn2)n1 (stereo not drawn) [Compound 495, N-(4-amino-3,4-dioxo-1-phenylbutan-2-yl)-3-methyl-1-(pyridin-2-yl)-1H-pyrazole-5-carboxamide]
[1]; [6]
  IC50: 10 to 25 µM
[2]
  % reduction compared to vehicle: −27%
